Test results published in PubChem BioAssay AID330 (DTP/NCI, 2004).
Several values for one entry are separate records, joined by “and”; a condition that tells them apart may be missing. Equal values may be shown once. Inconclusive results and toxic doses are left out. The calls were made as follows: active = survival T/C of 150% or more; inactive = T/C below 125% in these data.

Tested on: P388 leukemia ip, CD2F1 mice, survival T/C
Test: NCI In Vivo Anticancer Drug Screen. Data for tumor model P388 Leukemia (intraperitoneal) in CD2F1 (CDF1) mice
Settings: endpoint: median survival time, higher = longer survival
Method in brief: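 Mice carrying the transplanted tumor received test compound or vehicle. Survival was recorded in each group, and the value is the treated-group measurement divided by that of the vehicle-treated control group.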

[1] = dose: 100.0 mg/kg/injection, schedule: Q04DX003 (ip), vehicle: saline with Tween-80
[2] = dose: 200.0 mg/kg/injection, schedule: Q04DX003 (ip), vehicle: saline with Tween-80
[3] = dose: 50.0 mg/kg/injection, schedule: Q01DX005 (ip), vehicle: Klucel (hydroxypropylcellulose) (HPC)
[4] = dose: 100.0 mg/kg/injection, schedule: Q01DX005 (ip), vehicle: Klucel (hydroxypropylcellulose) (HPC)
[5] = dose: 50.0 mg/kg/injection, schedule: Q01DX009 (ip), vehicle: saline with Tween-80
[6] = dose: 100.0 mg/kg/injection, schedule: Q01DX009 (ip), vehicle: saline with Tween-80
[7] = dose: 200.0 mg/kg/injection, schedule: Q01DX009 (ip), vehicle: saline with Tween-80
[8] = dose: 50.0 mg/kg/injection, schedule: Q01DX009 (ip), vehicle: Klucel (hydroxypropylcellulose) (HPC)
[9] = dose: 60.0 mg/kg/injection, schedule: Q01DX005 (ip), vehicle: saline with Tween-80
[10] = dose: 120.0 mg/kg/injection, schedule: Q01DX005 (ip), vehicle: saline with Tween-80
[11] = dose: 240.0 mg/kg/injection, schedule: Q01DX005 (ip), vehicle: saline with Tween-80
[12] = dose: 100.0 mg/kg/injection, schedule: Q01DX009 (ip), vehicle: Klucel (hydroxypropylcellulose) (HPC)
[13] = dose: 200.0 mg/kg/injection, schedule: Q01DX009 (ip), vehicle: Klucel (hydroxypropylcellulose) (HPC)
[14] = dose: 50.0 mg/kg/injection, schedule: Q01DX005 (ip), vehicle: saline with Tween-80
[15] = dose: 100.0 mg/kg/injection, schedule: Q01DX005 (ip), vehicle: saline with Tween-80
[16] = dose: 200.0 mg/kg/injection, schedule: Q01DX005 (ip), vehicle: saline with Tween-80

Measured: T/C

CSc1nc(N)nc2nc[nH]c12
inactive: [1] 104 % of control | [2] 122 % of control

O=C(O)C(CO)Nc1ncnc2nc[nH]c12 (stereo not drawn)
inactive: [3] 106 % of control | [4] 109 % of control | dose: 200.0 mg/kg/injection, schedule: Q01DX005 (ip), vehicle: Klucel (hydroxypropylcellulose) (HPC) 109 % of control

O=C1CC(c2ccccc2)C(c2ccccc2)CO1 (stereo not drawn)
inactive: dose: 25.0 mg/kg/injection, schedule: Q04DX003 (ip), vehicle: Klucel (hydroxypropylcellulose) (HPC) 91 % of control | dose: 50.0 mg/kg/injection, schedule: Q04DX003 (ip), vehicle: Klucel (hydroxypropylcellulose) (HPC) 92 % of control | dose: 100.0 mg/kg/injection, schedule: Q04DX003 (ip), vehicle: Klucel (hydroxypropylcellulose) (HPC) 88 % of control and 92 % of control | dose: 400.0 mg/kg/injection, schedule: Q04DX003 (ip), vehicle: Klucel (hydroxypropylcellulose) (HPC) 87 % of control

O=C(N/N=C\c1ccc(Cl)cc1)c1ccccc1
inactive: [5] 95 % of control | [6] 90 % of control | [7] 104 % of control

O/N=C(\C[P+](c1ccccc1)(c1ccccc1)c1ccccc1)c1ccccc1
inactive: dose: 12.5 mg/kg/injection, schedule: Q01DX009 (ip), vehicle: Klucel (hydroxypropylcellulose) (HPC) 100 % of control | dose: 25.0 mg/kg/injection, schedule: Q01DX009 (ip), vehicle: Klucel (hydroxypropylcellulose) (HPC) 99 % of control | [8] 102 % of control

N#Cc1ccccc1NC(=O)Nc1ccc(Cc2ccc(NC(=O)Nc3ccccc3C#N)cc2)cc1
inactive: [9] 97 % of control | [10] 97 % of control | [11] 93 % of control

COC1=C2CCC3c4cc(OC)c(OC)cc4CC[N+]3=C2CC1 (stereo not drawn)
inactive: dose: 25.0 mg/kg/injection, schedule: Q01DX005 (ip), vehicle: Klucel (hydroxypropylcellulose) (HPC) 97 % of control | [3] 99 % of control | [4] 113 % of control

C=C1C(=O)C23C(OC(=O)/C=C/c4ccccc4)C1CCC2C12COC3(O)C(O)C1C(C)(C)CCC2O (stereo not drawn)
inactive: dose: 3.75 mg/kg/injection, schedule: Q01DX009 (ip), vehicle: saline with Tween-80 98 % of control | dose: 7.5 mg/kg/injection, schedule: Q01DX009 (ip), vehicle: saline with Tween-80 95 % of control | dose: 15.0 mg/kg/injection, schedule: Q01DX009 (ip), vehicle: saline with Tween-80 101 % of control | dose: 30.0 mg/kg/injection, schedule: Q01DX009 (ip), vehicle: saline with Tween-80 98 % of control

CCOC(=O)C(C(C)=O)C(=O)c1ccccc1 (stereo not drawn)
inactive: dose: 50.0 mg/kg/injection, schedule: Q01DX009 (ip), vehicle: saline + alcohol 95 % of control | dose: 100.0 mg/kg/injection, schedule: Q01DX009 (ip), vehicle: saline + alcohol 101 % of control | dose: 200.0 mg/kg/injection, schedule: Q01DX009 (ip), vehicle: saline + alcohol 96 % of control

COc1ccc2c(c1)C(=O)C1(CC2)OC1c1ccncc1 (stereo not drawn)
inactive: [12] 97 % of control | [13] 100 % of control

CCOC(=O)c1cc(OCC)c(OCC)c(OCC)c1N
inactive: [5] 100 % of control | [6] 100 % of control | [7] 111 % of control

COc1cc2c[n+]3ccccc3c(N)c2cc1OC
inactive: dose: 50.0 mg/kg/injection, schedule: Q04DX003 (ip), vehicle: distilled water + Tween-80 110 % of control | dose: 100.0 mg/kg/injection, schedule: Q04DX003 (ip), vehicle: distilled water + Tween-80 106 % of control | dose: 200.0 mg/kg/injection, schedule: Q04DX003 (ip), vehicle: distilled water + Tween-80 97 % of control

Cc1ccc(N=Cc2ccccc2O)c(Br)c1
inactive: [8] 88 % of control | [12] 89 % of control | [13] 98 % of control

COc1ccccc1/C=N/N1C(=O)C2C3C=CC(O3)C2C1=O (stereo not drawn)
inactive: [14] 104 % of control | [15] 89 % of control | [16] 93 % of control

NCCc1cc(=O)[nH]o1
inactive: dose: 50.0 mg/kg/injection, schedule: Q01DX009 (ip), vehicle: suspension in saline 90 % of control | dose: 100.0 mg/kg/injection, schedule: Q01DX009 (ip), vehicle: suspension in saline 90 % of control | dose: 200.0 mg/kg/injection, schedule: Q01DX009 (ip), vehicle: suspension in saline 91 % of control

OC1COC(O)(CNCCc2c[nH]c3ccc(OCc4ccccc4)cc23)C(O)C1O (stereo not drawn)
inactive: dose: 60.0 mg/kg/injection, schedule: Q01DX005 (ip), vehicle: Klucel (hydroxypropylcellulose) (HPC) 101 % of control | dose: 120.0 mg/kg/injection, schedule: Q01DX005 (ip), vehicle: Klucel (hydroxypropylcellulose) (HPC) 99 % of control | dose: 240.0 mg/kg/injection, schedule: Q01DX005 (ip), vehicle: Klucel (hydroxypropylcellulose) (HPC) 87 % of control

COC(=O)C(=O)C(C)C(=O)C(C)c1nc(NC(=O)Nc2ccc(Cl)cc2)n[nH]1 (stereo not drawn)
inactive: [9] 101 % of control | [10] 101 % of control | [11] 100 % of control

C[n+]1c2ccccc2c2c3c(cccc31)C(=O)c1cc(Cl)ccc1-2 (tested in a mixture with another compound)
inactive: dose: 3.12 mg/kg/injection, schedule: Q01DX009 (ip), vehicle: water 106 % of control | dose: 6.25 mg/kg/injection, schedule: Q01DX009 (ip), vehicle: water 98 % of control | dose: 12.5 mg/kg/injection, schedule: Q01DX009 (ip), vehicle: water 98 % of control

CC1(C)[C@@H]2CC[C@H](OC(=O)/C=C/c3ccccc3)[C@@H]2[C@@H]2CC[C@H]3O[C@]321
inactive: dose: 80.0 mg/kg/injection, schedule: Q01DX001 (ip), vehicle: Klucel (hydroxypropylcellulose) (HPC) 109 % of control | dose: 160.0 mg/kg/injection, schedule: Q01DX001 (ip), vehicle: Klucel (hydroxypropylcellulose) (HPC) 102 % of control | dose: 320.0 mg/kg/injection, schedule: Q01DX001 (ip), vehicle: Klucel (hydroxypropylcellulose) (HPC) 100 % of control

CC(=O)Oc1cc2c3c(c1)CCCN3CCC2
inactive: dose: 1.25 mg/kg/injection, schedule: Q04DX003 (ip), vehicle: saline with Tween-80 91 % of control | dose: 2.5 mg/kg/injection, schedule: Q04DX003 (ip), vehicle: saline with Tween-80 104 % of control | dose: 5.0 mg/kg/injection, schedule: Q04DX003 (ip), vehicle: saline with Tween-80 100 % of control

CC(C)C(=O)NCc1ccccc1Sc1ccccc1CNC(=O)C(C)C
inactive: dose: 100.0 mg/kg/injection, schedule: Q04DX002 (ip), vehicle: saline with Tween-80 90 % of control | dose: 200.0 mg/kg/injection, schedule: Q04DX002 (ip), vehicle: saline with Tween-80 90 % of control | dose: 400.0 mg/kg/injection, schedule: Q04DX002 (ip), vehicle: saline with Tween-80 91 % of control

Nc1ncnc(Nc2ccc(S(N)(=O)=O)cc2)n1
inactive: dose: 5.0 mg/kg/injection, schedule: Q01DX009 (ip), vehicle: Klucel (hydroxypropylcellulose) (HPC) 100 % of control | dose: 10.0 mg/kg/injection, schedule: Q01DX009 (ip), vehicle: Klucel (hydroxypropylcellulose) (HPC) 97 % of control | dose: 20.0 mg/kg/injection, schedule: Q01DX009 (ip), vehicle: Klucel (hydroxypropylcellulose) (HPC) 100 % of control

Cc1cccc(/C=N/NC(N)=S)n1
inactive: dose: 15.0 mg/kg/injection, schedule: Q04DX002 (ip), vehicle: saline with Tween-80 105 % of control | dose: 30.0 mg/kg/injection, schedule: Q04DX002 (ip), vehicle: saline with Tween-80 106 % of control | dose: 60.0 mg/kg/injection, schedule: Q04DX002 (ip), vehicle: saline with Tween-80 106 % of control

CC(=O)OCC(Br)C(Br)COC(C)=O (stereo not drawn)
inactive: [1] 100 % of control | [2] 100 % of control | dose: 400.0 mg/kg/injection, schedule: Q04DX003 (ip), vehicle: saline with Tween-80 100 % of control

CCOC(=O)c1ccc(NC(C)=O)cc1
inactive: [12] 100 % of control | [13] 107 % of control | dose: 400.0 mg/kg/injection, schedule: Q01DX009 (ip), vehicle: Klucel (hydroxypropylcellulose) (HPC) 112 % of control

O=c1oc2ccc(Br)cc2cc1-n1nnc2cc([N+](=O)[O-])ccc21
inactive: [14] 90 % of control | [15] 89 % of control | [16] 89 % of control
